Source: patent US20200337311A1 (priority 2017, published 2020)

Test system: Meloidogyne incognita
Assay: Meloidogyne incognita in vivo test on cucumber plants (gall rating)
Conditions: 300 ppm; soil application to cucumber seedlings; 15 days after application; untreated check up to 8
Experimental: (§1) Meloidogyne incognita: In Vivo Test
Cucumber plants were grown in seedling tray containing mixture of Sand:Soil:FYM:Cocopeat in ratio of 1:1:1:1. One mL of test compound at tested concentration was applied into the soil mixture with the help of micropipette when the cucumber seedlings ten days old. Approximately 2000 freshly hatched second-stage juveniles of Meloidogyne incognita were inoculated. The treated plants were allowed to grow at 27° C. temperature in greenhouse. Observation of gall rating was recorded after 15 days of application. Plants were carefully uprooted and roots were washed thoroughly. The gall rating was observed on 0-10 scale as described by Zeck (1971) as mentioned below: • 0=no galls • 1=very few small galls • 2=numerous small galls • 3=numerous small galls of which some are grown together • 4=numerous small and some big galls • 5=25% of roots severely galled • 6=50% of roots severely galled • 7=75% of roots severely galled • 8=no healthy roots but plant is still green • 9=roots rotting and plant dying • 10=plant and roots dead
recorded less than 3 gall rating in the tests, where there was extensive galling (up to 8) in untreated check.

Q: With `CCO/N=C\c1cnc(SCCC(F)=C(F)F)o1` [Compound 13] as the compound, how does the “gall rating (0-10 scale, Zeck 1971)” value read?
A: < 3

Q: With `CCO/N=C/c1cnc(S(=O)(=O)CCC(F)=C(F)F)s1` [Compound 23] as the compound, how does the “gall rating (0-10 scale, Zeck 1971)” value read?
A: < 3

Q: How did the “gall rating (0-10 scale, Zeck 1971)” value turn out when `CC(C)CCO/N=C/c1cnc(SCCC(F)=C(F)F)s1` [Compound 34] was run?
A: < 3

Q: How did the “gall rating (0-10 scale, Zeck 1971)” value turn out when `CCO/N=C/c1cnc([S+]([O-])CCC(F)=C(F)F)o1` (stereo not drawn) [Compound 36] was run?
A: < 3

Q: For `CO/N=C(\C)c1cnc(S(=O)(=O)CCC(F)=C(F)F)s1` [Compound 53], which “gall rating (0-10 scale, Zeck 1971)” value is on record?
A: < 3

Q: How did the “gall rating (0-10 scale, Zeck 1971)” value turn out when `[O-][S+](CCC(F)=C(F)F)c1ncc(/C=N\OCC2CC2)o1` (stereo not drawn) [Compound 103] was run?
A: < 3

Q: How did the “gall rating (0-10 scale, Zeck 1971)” value turn out when `CO/N=C(\C)c1cnc([S+]([O-])CCC(F)=C(F)F)o1` (stereo not drawn) [Compound 130] was run?
A: < 3

Q: `CCO/N=C(\C)c1cnc(SCCC(F)=C(F)F)o1` [Compound 132] was tested. Which “gall rating (0-10 scale, Zeck 1971)” value did it give?
A: < 3

Q: How did the “gall rating (0-10 scale, Zeck 1971)” value turn out when `CO/N=C(/C)c1cnc(S(=O)(=O)CCC(F)=C(F)F)o1` [Compound 134] was run?
A: < 3

Q: `Cc1csc(S(=O)(CCC(F)=C(F)F)=NC#N)n1` (stereo not drawn) [Compound 183] was tested. Which “gall rating (0-10 scale, Zeck 1971)” value did it give?
A: < 3

Q: For `[O-][S+](CCC(F)=C(F)F)c1ncc(-c2ncon2)s1` (stereo not drawn) [Compound 213], which “gall rating (0-10 scale, Zeck 1971)” value is on record?
A: < 3

Q: How did the “gall rating (0-10 scale, Zeck 1971)” value turn out when `CCO/N=C\c1cnc(S(=O)(=O)CCC=C(F)F)s1` [Compound 233] was run?
A: < 3

Q: How did the “gall rating (0-10 scale, Zeck 1971)” value turn out when `CO/N=C/c1cnc(SCCC=C(F)F)s1` [Compound 234] was run?
A: < 3

Q: For `CO/N=C\c1cnc(SCCC=C(F)F)s1` [Compound 235], which “gall rating (0-10 scale, Zeck 1971)” value is on record?
A: < 3

Q: How did the “gall rating (0-10 scale, Zeck 1971)” value turn out when `CO/N=C\c1cnc(S(=O)(=O)CCC=C(F)F)s1` [Compound 236] was run?
A: < 3

Q: For `CCO/N=C/c1cnc(S(=O)(=O)CCC=C(F)F)s1` [Compound 237], which “gall rating (0-10 scale, Zeck 1971)” value is on record?
A: < 3

Q: With `CO/N=C/c1oc(SCCC(F)=C(F)F)nc1C` [Compound 238] as the compound, how does the “gall rating (0-10 scale, Zeck 1971)” value read?
A: < 3

Q: Which “gall rating (0-10 scale, Zeck 1971)” value does the source give for `CO/N=C(/c1oc([S+]([O-])CCC(F)=C(F)F)nc1C)C(C)C` (stereo not drawn) [Compound 273] here?
A: < 3

Q: With `[O-][S+](CCC(F)=C(F)F)c1ncc(C(F)F)s1` (stereo not drawn) [Compound 326] as the compound, how does the “gall rating (0-10 scale, Zeck 1971)” value read?
A: < 3

Q: How did the “gall rating (0-10 scale, Zeck 1971)” value turn out when `N#Cc1cnc(SCCC(F)=C(F)F)s1` [Compound 327] was run?
A: < 3

Q: How did the “gall rating (0-10 scale, Zeck 1971)” value turn out when `N#Cc1cnc([S+]([O-])CCC(F)=C(F)F)s1` (stereo not drawn) [Compound 328] was run?
A: < 3

Q: For `O=S(=O)(CCC(F)=C(F)F)c1ncc(C(F)F)s1` [Compound 329], which “gall rating (0-10 scale, Zeck 1971)” value is on record?
A: < 3

Q: `FC(F)=C(F)CCSc1ncc(C(F)F)o1` [Compound 330] was tested. Which “gall rating (0-10 scale, Zeck 1971)” value did it give?
A: < 3

Q: How did the “gall rating (0-10 scale, Zeck 1971)” value turn out when `N#Cc1cnc(SCCC(F)=C(F)F)o1` [Compound 331] was run?
A: < 3

Q: For `N#Cc1cnc(S(=O)(=O)CCC(F)=C(F)F)s1` [Compound 332], which “gall rating (0-10 scale, Zeck 1971)” value is on record?
A: < 3

Q: Which “gall rating (0-10 scale, Zeck 1971)” value does the source give for `N#Cc1cnc([S+]([O-])CCC(F)=C(F)F)o1` (stereo not drawn) [Compound 333] here?
A: < 3

Q: How did the “gall rating (0-10 scale, Zeck 1971)” value turn out when `Cc1nc([S+]([O-])CCC(F)=C(F)F)sc1C(F)F` (stereo not drawn) [Compound 337] was run?
A: < 3

Q: Which “gall rating (0-10 scale, Zeck 1971)” value does the source give for `Cc1nc([S+]([O-])CCC(F)=C(F)F)sc1C#N` (stereo not drawn) [Compound 338] here?
A: < 3

Q: `Cc1nc(S(=O)(=O)CCC(F)=C(F)F)sc1C#N` [Compound 339] was tested. Which “gall rating (0-10 scale, Zeck 1971)” value did it give?
A: < 3

Q: For `Cc1nc(S(=O)(=O)CCC(F)=C(F)F)sc1C(F)F` [Compound 340], which “gall rating (0-10 scale, Zeck 1971)” value is on record?
A: < 3

Q: With `Cc1nc([S+]([O-])CCC(F)=C(F)F)oc1C#N` (stereo not drawn) [Compound 348] as the compound, how does the “gall rating (0-10 scale, Zeck 1971)” value read?
A: < 3

Q: With `Cc1nc(S(=O)(=O)CCC(F)=C(F)F)oc1C(F)F` [Compound 350] as the compound, how does the “gall rating (0-10 scale, Zeck 1971)” value read?
A: < 3

Test system: Meloidogyne incognita
Assay: Meloidogyne incognita (root-knot nematode) in vitro test
Conditions: 300 ppm; 50 juveniles in 500 μL water, 25° C.; counted at 48, 72 and 96 h; no mortality in untreated check
Experimental: Example 1: Meloidogyne incognita (Root-Knot Nematode): In Vitro Test
The test compounds at a concentration of 300 ppm were introduced into 500 μL of distilled water containing 50 Meloidogyne incognita juveniles into 24-well plates. The suspension was lightly shaken for uniform mixing of compounds. The test plates were covered with lids, and were kept for incubation at 25° C. temperature and 90% relative humidity. […] Compounds
as §1

Q: With `CO/N=C/c1cnc(SCCC=C(F)F)o1` [Compound 290] as the compound, how does the mortality read?
A: > 90%
